The structures appear in SMILES notation. Values joined by “and” are separate entries in the source; they are usually repeats but may differ in a detail not shown here. Equal values may be shown once.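 Assay format: 96-well plates, 48-hour exposure. GI50 is the concentration that inhibits growth by half. TGI marks complete inhibition of growth.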

We go through twelve molecules from PubChem BioAssay (NCI).

Some test systems named below: SN12C renal; OVCAR-5 ovarian; 786-0 renal; SF-295 CNS; HS 578T breast; U251 CNS; SNB-75 CNS; SK-OV-3 ovarian; MALME-3M melanoma; HOP-92 NSCLC.
What all share (assay): NCI anticancer screen, dose series, 48 h

Take `C[C@]12CC[C@@H]3c4ccc(O)cc4CC[C@H]3[C@@H]1CC[C@@H]2NS(=O)(=O)c1ccc(-c2ccccc2)cc1`: the GI50 was 2.75 µM in the experiment on SN12C renal; 4.76 µM in the experiment on OVCAR-5 ovarian; 3.82 µM with 786-0 renal; 3.06 µM with SF-295 CNS; 7.37 µM with HS 578T breast; 4 µM in the experiment on U251 CNS. The GI50 in the experiment on SNB-75 CNS was 3.5 µM; in the experiment on SK-OV-3 ovarian, 6.79 µM; in the experiment on MALME-3M melanoma it was 3.01 µM; with HOP-92 NSCLC, 2.09 µM. Also, the TGI in the experiment on SN12C renal was 10.3 µM; with OVCAR-5 ovarian, 19.2 µM; in the experiment on 786-0 renal, 22.5 µM; with SF-295 CNS, 13.2 µM; with HS 578T breast it was greater than 100 µM; with U251 CNS it was 32.6 µM. Besides, the TGI with SNB-75 CNS was 55.2 µM; in the experiment with SK-OV-3 ovarian, greater than 100 µM; in the experiment on MALME-3M melanoma, 12.6 µM; with HOP-92 NSCLC, 9.68 µM.

On to `COc1cc2c(cc1OC)[C@H]1C(=O)c3cc4c(cc3[C@H]1N(C)C2=O)OCO4`, for which the TGI with SN12C renal was greater than 100 µM; with OVCAR-5 ovarian, greater than 100 µM; in the experiment on 786-0 renal, greater than 45.2 µM; in the experiment with SF-295 CNS, greater than 69.9 µM; in the experiment on HS 578T breast, greater than 100 µM; with U251 CNS it was greater than 100 µM. The TGI is greater than 100 µM in the experiment on SNB-75 CNS, greater than 100 µM in the experiment on SK-OV-3 ovarian, greater than 89.5 µM with MALME-3M melanoma and greater than 89.8 µM with HOP-92 NSCLC.

On to `O=c1[nH]c(-c2ccccn2)nc2sc3c(c12)CCCCCC3`, for which the GI50 is 6.29 µM in the experiment with SN12C renal; 90.9 µM in the experiment on OVCAR-5 ovarian; 5.65 µM in the experiment on 786-0 renal; 6.45 µM with HS 578T breast; 2.16 µM with U251 CNS; 85.1 µM in the experiment with SNB-75 CNS. In addition, the figures for the GI50 in the experiment on SK-OV-3 ovarian and in the experiment with HOP-92 NSCLC were greater than 100 µM and 3.9 µM, respectively. Also, the TGI in the experiment on SN12C renal, with OVCAR-5 ovarian, in the experiment with 786-0 renal, with HS 578T breast, in the experiment on U251 CNS and in the experiment on SNB-75 CNS was greater than 100 µM in each case. For the same molecule, the TGI with SK-OV-3 ovarian and in the experiment with HOP-92 NSCLC was greater than 100 µM each time.

For the molecule `CC(=O)Nc1ccc(-n2cnc3cc(-c4ccc(OCCN5CCCCC5)cc4)ccc32)cc1`, the GI50 was 4.48 µM in the experiment with SN12C renal; 6.22 µM in the experiment on OVCAR-5 ovarian; 0.803 µM in the experiment on 786-0 renal; 5.5 µM in the experiment with SF-295 CNS; 4.15 µM with HS 578T breast; 4.16 µM with U251 CNS. Besides, the GI50 was 4.11 µM with SNB-75 CNS, 6.2 µM with SK-OV-3 ovarian, 2.46 µM in the experiment on MALME-3M melanoma and 4.51 µM in the experiment with HOP-92 NSCLC. Besides, the TGI in the experiment on SN12C renal came to 9.72 µM; with OVCAR-5 ovarian, 14.6 µM; in the experiment with 786-0 renal it was 1.7 µM; in the experiment on SF-295 CNS it was 10.6 µM; in the experiment with HS 578T breast it was 10.8 µM; in the experiment with U251 CNS it was 9.14 µM. Further, the TGI is 8.31 µM in the experiment on SNB-75 CNS, 12.2 µM in the experiment on SK-OV-3 ovarian, 7.59 µM in the experiment on MALME-3M melanoma and 11.6 µM in the experiment with HOP-92 NSCLC.

Consider `Cc1cc(N)c2ccccc2[n+]1CCCCCCCCCC[n+]1c(C)cc(N)c2ccccc21`, for which the GI50 in the experiment with SN12C renal is 0.159 µM; in the experiment with 786-0 renal, 0.512 µM and 3.75 µM; with SF-295 CNS it was 0.189 µM; with HS 578T breast it was 0.303 µM; in the experiment on U251 CNS, 0.145 µM and 1.15 µM; in the experiment on SNB-75 CNS, 0.212 µM and 0.249 µM. The GI50 is 0.163 µM and 1.35 µM in the experiment with MALME-3M melanoma; 0.168 µM in the experiment on HOP-92 NSCLC. Besides, the TGI is > 14 µM and 7.39 µM and 16.7 µM with SN12C renal; 25.5 µM and 7.98 µM in the experiment on OVCAR-5 ovarian; 10.9 µM and 21.3 µM and 25.5 µM in the experiment with 786-0 renal; 1.84 µM and 11.9 µM and 3.61 µM in the experiment with SF-295 CNS; > 19.2 µM and 29.6 µM with HS 578T breast; 1.05 µM and 1.94 µM and 6.52 µM with U251 CNS. Also, the TGI with SNB-75 CNS was 6.77 µM and 6.72 µM and 11 µM.

Take `O=C(Nc1ccccc1)Nc1ccccc1CNc1nc(Nc2ccc(OCCN3CCCC3)cc2)ncc1Cl`: the GI50 in the experiment on SN12C renal was 2.41 µM; in the experiment with OVCAR-5 ovarian, 6.6 µM; in the experiment on 786-0 renal, 1.11 µM; in the experiment on SF-295 CNS, 7.24 µM; with HS 578T breast, 2.38 µM; in the experiment on U251 CNS, 1.93 µM. The GI50 was 1.2 µM with SNB-75 CNS, 5.51 µM with MALME-3M melanoma and 2.82 µM in the experiment on HOP-92 NSCLC. For the same molecule, the TGI is 9.12 µM with SN12C renal; 13.3 µM with OVCAR-5 ovarian; 2.78 µM with 786-0 renal; 14 µM with SF-295 CNS; 15.7 µM in the experiment with HS 578T breast; 13.7 µM with U251 CNS. Also, the results for the TGI with SNB-75 CNS, with MALME-3M melanoma and in the experiment with HOP-92 NSCLC were 6.22 µM, 12.7 µM and 10.6 µM, respectively.

Consider `C=C(C)[C@@H]1CCC[C@]2(C(=O)O)CC[C@]3(C)[C@@H](CC[C@@H]4[C@@]5(C)C/C(=C/c6ccncc6)C(=O)C(C)(C)[C@@H]5CC[C@]43C)[C@@H]12`, for which the GI50 was 3.71 µM with SN12C renal; 2.52 µM in the experiment with OVCAR-5 ovarian; 2.24 µM with 786-0 renal; 2.04 µM with SF-295 CNS; 19.4 µM with HS 578T breast; 2.14 µM in the experiment with U251 CNS. The GI50 in the experiment on SK-OV-3 ovarian is 4.91 µM; with MALME-3M melanoma, 3.46 µM; with HOP-92 NSCLC it was 1.71 µM. For the same molecule, the TGI is greater than 100 µM with SN12C renal; 11.9 µM in the experiment with OVCAR-5 ovarian; 6.23 µM with 786-0 renal; 6.63 µM in the experiment on SF-295 CNS; greater than 100 µM in the experiment on HS 578T breast; 7.38 µM in the experiment with U251 CNS. Also, the results for the TGI with SK-OV-3 ovarian, with MALME-3M melanoma and with HOP-92 NSCLC were 34.3 µM, 23.2 µM and 7.19 µM, respectively.

Turning to `COc1ccc(N(Cc2cc(OC)c(OC)c(OC)c2)C2OC(=O)c3ccccc32)cc1` (centres undefined), the GI50 in the experiment on SN12C renal is 0.703 µM; in the experiment on OVCAR-5 ovarian, 3.53 µM; with 786-0 renal, 0.701 µM; in the experiment with SF-295 CNS it was 0.534 µM; with HS 578T breast, 0.373 µM; with U251 CNS it was 0.385 µM. The GI50 with SK-OV-3 ovarian was 1.23 µM; in the experiment on MALME-3M melanoma, 0.511 µM; with HOP-92 NSCLC it was 0.349 µM. Moreover, the TGI with SN12C renal is greater than 100 µM; in the experiment with OVCAR-5 ovarian it was greater than 100 µM; with 786-0 renal, greater than 100 µM; in the experiment with SF-295 CNS, greater than 100 µM; in the experiment on HS 578T breast, greater than 100 µM; in the experiment on U251 CNS, greater than 34.7 µM. In addition, the TGI with SK-OV-3 ovarian, with MALME-3M melanoma and with HOP-92 NSCLC was greater than 100 µM each time.

Regarding `C#Cc1ccc(-n2c(/C=C/c3cc(OC)c(OC)c(OC)c3)nc3ncccc3c2=O)cc1`, the GI50 is 20.5 µM in the experiment on SN12C renal; greater than 100 µM with OVCAR-5 ovarian; 5.31 µM in the experiment with 786-0 renal; 3.67 µM with HS 578T breast; 9.93 µM with U251 CNS; 3.88 µM in the experiment on SNB-75 CNS. The GI50 was 5.33 µM in the experiment on SK-OV-3 ovarian, 9.74 µM in the experiment with MALME-3M melanoma and 2.31 µM in the experiment on HOP-92 NSCLC. In addition, the TGI in the experiment with SN12C renal was greater than 100 µM; with OVCAR-5 ovarian, greater than 100 µM; in the experiment with 786-0 renal it was greater than 100 µM; in the experiment on HS 578T breast it was 23 µM; with U251 CNS, greater than 100 µM; with SNB-75 CNS it was greater than 100 µM. Also, the TGI in the experiment with SK-OV-3 ovarian stood at 77.7 µM; in the experiment with MALME-3M melanoma, 70.5 µM; with HOP-92 NSCLC, 7.72 µM.

With `CCC1(N2C(=O)c3c(F)c(F)c(F)c(F)c3C2=O)C(=O)NC(=O)N(c2ccccc2)C1=O` (centres undefined), the GI50 was 1.57 µM in the experiment on SN12C renal; 1.69 µM with OVCAR-5 ovarian; 3.34 µM in the experiment with 786-0 renal; 2.57 µM in the experiment on SF-295 CNS; 4.14 µM in the experiment with HS 578T breast; 1.53 µM with U251 CNS. The GI50 was 1.9 µM with SNB-75 CNS, 10.6 µM in the experiment with SK-OV-3 ovarian and 2.01 µM in the experiment with HOP-92 NSCLC. The TGI in the experiment on SN12C renal came to 3.54 µM; with OVCAR-5 ovarian, 3.43 µM; in the experiment with 786-0 renal it was 13.9 µM; in the experiment on SF-295 CNS, 7.55 µM; in the experiment on HS 578T breast it was 30.1 µM; in the experiment on U251 CNS it was 3.07 µM. Besides, the TGI in the experiment on SNB-75 CNS was 5.09 µM; in the experiment with SK-OV-3 ovarian, 31 µM; in the experiment on HOP-92 NSCLC it was 4.17 µM.

Take `C=C(CC1(CC(=C)c2ccc(C(=O)O)cc2)C(=O)N(C)C(=O)N(C)C1=O)c1ccc(C(=O)O)cc1`: the GI50 in the experiment with SN12C renal is 59.2 µM; with OVCAR-5 ovarian, 43.6 µM; in the experiment on 786-0 renal it was greater than 100 µM; with SF-295 CNS, greater than 100 µM; in the experiment with HS 578T breast it was 67.8 µM; in the experiment with U251 CNS it was 54.2 µM. Further, the results for the GI50 in the experiment with SNB-75 CNS, with SK-OV-3 ovarian and with HOP-92 NSCLC were 25.2 µM, 6.02 µM and 78.4 µM, respectively. Also, the TGI in the experiment on SN12C renal, in the experiment with OVCAR-5 ovarian, with 786-0 renal, in the experiment with SF-295 CNS, in the experiment with HS 578T breast and in the experiment on U251 CNS was greater than 100 µM throughout. In addition, the TGI in the experiment on SNB-75 CNS is greater than 100 µM; with SK-OV-3 ovarian it was 58.7 µM; with HOP-92 NSCLC, greater than 100 µM.

Take `C=C(C)[C@]12CC(C)C34OC(/C=C\C=C\CCCCCCCCC)(O[C@@H]1[C@@H]3[C@@H]1O[C@]1(CO)[C@@H](O)[C@]1(O)C(=O)C(C)=C[C@@H]41)O2` (some centres undefined): the TGI in the experiment with SN12C renal came out at 7.86 µM; in the experiment on OVCAR-5 ovarian, 41.2 µM; in the experiment with 786-0 renal, 21.5 µM; in the experiment on HS 578T breast, 3.97 µM; in the experiment on U251 CNS, 49.9 µM; in the experiment on SNB-75 CNS, 22 µM. Further, the TGI in the experiment on SK-OV-3 ovarian was found to be 35.1 µM; in the experiment with MALME-3M melanoma, 23.1 µM; in the experiment on HOP-92 NSCLC, 22.4 µM. In addition, the GI50 in the experiment on MALME-3M melanoma is less than 0.0001 µM.
